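Where inhibition never reached the appropriate level, the endpoint shown equals the highest concentration tested. Otherwise, values were interpolated linearly from a five-concentration, 48-hour dose response in 96-well plates. GI50 is the concentration that inhibits growth by half. At the TGI there is no net growth.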
Legend:
Experiment in all cases: NCI anticancer screen, dose series, 48 h
786-0 renal = test system: 786-0 renal
A498 renal = test system: A498 renal
A549 NSCLC = test system: A549 NSCLC
ACHN renal = test system: ACHN renal
BT-549 breast = test system: BT-549 breast
CAKI-1 renal = test system: CAKI-1 renal
CCRF-CEM leukemia = test system: CCRF-CEM leukemia
COLO 205 colon = test system: COLO 205 colon
DU-145 prostate = test system: DU-145 prostate
EKVX NSCLC = test system: EKVX NSCLC
HCC-2998 colon = test system: HCC-2998 colon
HCT-15 colon = test system: HCT-15 colon
HL-60(TB) leukemia = test system: HL-60(TB) leukemia
HOP-62 NSCLC = test system: HOP-62 NSCLC
HOP-92 NSCLC = test system: HOP-92 NSCLC
HS 578T breast = test system: HS 578T breast
HT29 colon = test system: HT29 colon
IGROV1 ovarian = test system: IGROV1 ovarian
K-562 leukemia = test system: K-562 leukemia
KM12 colon = test system: KM12 colon
LOX IMVI melanoma = test system: LOX IMVI melanoma
M14 melanoma = test system: M14 melanoma
MALME-3M melanoma = test system: MALME-3M melanoma
MCF7 breast = test system: MCF7 breast
MDA-MB-231 breast = test system: MDA-MB-231 breast
MDA-MB-435 = test system: MDA-MB-435
MOLT-4 leukemia = test system: MOLT-4 leukemia
NCI-H226 lung = test system: NCI-H226 lung
NCI-H23 lung = test system: NCI-H23 lung
NCI-H460 lung = test system: NCI-H460 lung
NCI-H522 lung = test system: NCI-H522 lung
NCI/ADR-RES ovarian = test system: NCI/ADR-RES ovarian
OVCAR-3 ovarian = test system: OVCAR-3 ovarian
OVCAR-4 ovarian = test system: OVCAR-4 ovarian
OVCAR-5 ovarian = test system: OVCAR-5 ovarian
OVCAR-8 ovarian = test system: OVCAR-8 ovarian
PC-3 prostate = test system: PC-3 prostate
RPMI-8226 leukemia = test system: RPMI-8226 leukemia
RXF 393 renal = test system: RXF 393 renal
SF-268 CNS = test system: SF-268 CNS
SF-295 CNS = test system: SF-295 CNS
SF-539 CNS = test system: SF-539 CNS
SK-MEL-2 melanoma = test system: SK-MEL-2 melanoma
SK-MEL-28 melanoma = test system: SK-MEL-28 melanoma
SK-MEL-5 melanoma = test system: SK-MEL-5 melanoma
SK-OV-3 ovarian = test system: SK-OV-3 ovarian
SN12C renal = test system: SN12C renal
SNB-19 CNS = test system: SNB-19 CNS
SNB-75 CNS = test system: SNB-75 CNS
SW-620 colon = test system: SW-620 colon
T-47D breast = test system: T-47D breast
TK-10 renal = test system: TK-10 renal
U251 CNS = test system: U251 CNS
UACC-257 melanoma = test system: UACC-257 melanoma
UACC-62 melanoma = test system: UACC-62 melanoma
UO-31 renal = test system: UO-31 renal

`Clc1nc(Cl)c2ncn(C/C=C\COc3cccc(OC/C=C\Cn4cnc5c(Cl)nc(Cl)nc54)c3)c2n1` was tested, and the GI50 (786-0 renal) was > 100 µM, the TGI (786-0 renal) was > 100 µM and the GI50 (A498 renal) was > 100 µM. For the same compound, the TGI (A498 renal) was > 100 µM, the GI50 (A549 NSCLC) was > 100 µM and the TGI (A549 NSCLC) was > 100 µM. The GI50 (ACHN renal) was > 100 µM, the TGI (ACHN renal) was > 100 µM and the GI50 (BT-549 breast) was > 100 µM. The TGI (BT-549 breast) was > 100 µM, the GI50 (CAKI-1 renal) was > 100 µM and the TGI (CAKI-1 renal) was > 100 µM. For the same compound, the GI50 (CCRF-CEM leukemia) was 95.8 µM, the TGI (CCRF-CEM leukemia) was > 100 µM and the GI50 (COLO 205 colon) was > 100 µM. The TGI (COLO 205 colon) was > 100 µM, the GI50 (DU-145 prostate) was > 100 µM and the TGI (DU-145 prostate) was > 100 µM. The GI50 (EKVX NSCLC) was > 100 µM, the TGI (EKVX NSCLC) was > 100 µM and the GI50 (HCC-2998 colon) was > 100 µM. For the same compound, the TGI (HCC-2998 colon) was > 100 µM, the GI50 (HCT-15 colon) was > 100 µM and the TGI (HCT-15 colon) was > 100 µM. For the same compound, the GI50 (HL-60(TB) leukemia) was > 100 µM, the TGI (HL-60(TB) leukemia) was > 100 µM and the GI50 (HOP-62 NSCLC) was > 100 µM. The TGI (HOP-62 NSCLC) was > 100 µM, the GI50 (HOP-92 NSCLC) was > 100 µM and the TGI (HOP-92 NSCLC) was > 100 µM. The GI50 (HS 578T breast) was > 100 µM, the TGI (HS 578T breast) was > 100 µM and the GI50 (HT29 colon) was > 100 µM. For the same compound, the TGI (HT29 colon) was > 100 µM, the GI50 (IGROV1 ovarian) was > 100 µM and the TGI (IGROV1 ovarian) was > 100 µM. The GI50 (K-562 leukemia) was 53.8 µM, the TGI (K-562 leukemia) was > 100 µM and the GI50 (KM12 colon) was > 100 µM. The TGI (KM12 colon) was > 100 µM, the GI50 (LOX IMVI melanoma) was 19.3 µM and the TGI (LOX IMVI melanoma) was 43.8 µM. The GI50 (M14 melanoma) was > 100 µM, the TGI (M14 melanoma) was > 100 µM and the GI50 (MALME-3M melanoma) was > 100 µM. The TGI (MALME-3M melanoma) was > 100 µM, the GI50 (MCF7 breast) was > 100 µM and the TGI (MCF7 breast) was > 100 µM. For the same compound, the GI50 (MDA-MB-231 breast) was > 100 µM, the TGI (MDA-MB-231 breast) was > 100 µM and the GI50 (MDA-MB-435) was > 100 µM. The TGI (MDA-MB-435) was > 100 µM, the GI50 (MOLT-4 leukemia) was > 100 µM and the TGI (MOLT-4 leukemia) was > 100 µM. The GI50 (NCI-H226 lung) was 43.3 µM, the TGI (NCI-H226 lung) was > 100 µM and the GI50 (NCI-H23 lung) was > 100 µM. The TGI (NCI-H23 lung) was > 100 µM, the GI50 (NCI-H460 lung) was > 100 µM and the TGI (NCI-H460 lung) was > 100 µM. The GI50 (NCI-H522 lung) was > 100 µM, the TGI (NCI-H522 lung) was > 100 µM and the GI50 (NCI/ADR-RES ovarian) was > 100 µM. For the same compound, the TGI (NCI/ADR-RES ovarian) was > 100 µM, the GI50 (OVCAR-3 ovarian) was > 100 µM and the TGI (OVCAR-3 ovarian) was > 100 µM. The GI50 (OVCAR-4 ovarian) was > 100 µM, the TGI (OVCAR-4 ovarian) was > 100 µM and the GI50 (OVCAR-5 ovarian) was > 100 µM. The TGI (OVCAR-5 ovarian) was > 100 µM, the GI50 (OVCAR-8 ovarian) was > 100 µM and the TGI (OVCAR-8 ovarian) was > 100 µM. For the same compound, the GI50 (PC-3 prostate) was > 100 µM, the TGI (PC-3 prostate) was > 100 µM and the GI50 (RPMI-8226 leukemia) was > 100 µM. For the same compound, the TGI (RPMI-8226 leukemia) was > 100 µM, the GI50 (RXF 393 renal) was 48.8 µM and the TGI (RXF 393 renal) was > 100 µM. For the same compound, the GI50 (SF-268 CNS) was > 100 µM, the TGI (SF-268 CNS) was > 100 µM and the GI50 (SF-295 CNS) was > 100 µM. For the same compound, the TGI (SF-295 CNS) was > 100 µM, the GI50 (SF-539 CNS) was > 100 µM and the TGI (SF-539 CNS) was > 100 µM. For the same compound, the GI50 (SK-MEL-2 melanoma) was > 100 µM, the TGI (SK-MEL-2 melanoma) was > 100 µM and the GI50 (SK-MEL-28 melanoma) was > 100 µM. The TGI (SK-MEL-28 melanoma) was > 100 µM, the GI50 (SK-MEL-5 melanoma) was > 100 µM and the TGI (SK-MEL-5 melanoma) was > 100 µM. The GI50 (SK-OV-3 ovarian) was > 100 µM, the TGI (SK-OV-3 ovarian) was > 100 µM and the GI50 (SN12C renal) was > 100 µM. The TGI (SN12C renal) was > 100 µM, the GI50 (SNB-19 CNS) was > 100 µM and the TGI (SNB-19 CNS) was > 100 µM. The GI50 (SNB-75 CNS) was > 100 µM, the TGI (SNB-75 CNS) was > 100 µM and the GI50 (SW-620 colon) was > 100 µM. The TGI (SW-620 colon) was > 100 µM, the GI50 (T-47D breast) was 88.1 µM and the TGI (T-47D breast) was > 100 µM. For the same compound, the GI50 (TK-10 renal) was > 100 µM, the TGI (TK-10 renal) was > 100 µM and the GI50 (U251 CNS) was > 100 µM. For the same compound, the TGI (U251 CNS) was > 100 µM, the GI50 (UACC-257 melanoma) was > 100 µM and the TGI (UACC-257 melanoma) was > 100 µM. The GI50 (UACC-62 melanoma) was > 100 µM, the TGI (UACC-62 melanoma) was > 100 µM and the GI50 (UO-31 renal) was > 100 µM. For the same compound, the TGI (UO-31 renal) was > 100 µM.

Source: PubChem BioAssay (NCI)
